The text below walks through data of US20200171056A1, “SULFONYLUREA COMPOUNDS IN THE TREATMENT OF DISEASE ASSOCIATED WITH UV-INDUCED DAMAGE” (CeMM - Forschungszentrum für Molekulare Medizin GmbH, priority 2017, published 2020).

Molecules are shown by their SMILES.

Common to all, as to type: cell-based, human
One assay deals with SUR1 transcript. The experiment in a line: SUR1 mRNA expression by quantitative reverse transcription PCR. As to conditions: ΔXPA cells, 0.5 mM for 6 hours, 15 J/M^2 UV (FIG. 9B). The method, then: A. Fragments Per Kilobase Million (FPKM) for SUR1 and GAPDH in HAP1 WT cells compared, from RNA sequencing. B. mRNA expression of SUR1 transcript assessed by quantitative reverse transcription PCR in WT and ΔXPA cells with or without 0.5 mM acetohexamide treatment for 6 hours, followed by 15 J/M^2 UV irradiation and subsequent recovery as indicated. Expression of GAPDH was used as a reference. Error bars indicate SEM (n=3).
WT and ΔXPA HAP1 cells were harvested and RNA was isolated using phenol-chlorophorm extraction. After treatment with 1 μl DNase (Sigma), the cDNA was transcribed using SuperScript III Reverse Transcriptase (Invitrogen). An amount of 1 μg of cDNA template was used for the qRT-PCR using SYBR Green qPCR Mastermix (Qiagen). Analysis was performed in triplicates using GAPDH as a control gene. The PCR was performed on a 7900HT Fast Real-Time PCR System (Applied Biosystems). The following primers were used: […]

Another assay deals with WT and ΔXPA cells. The experiment in a line: Cell cycle analysis (propidium iodide, FACS). The conditions noted are these: 0.5 mM for 6 hours, WT vs ΔXPA (FIG. 8A). The method, then: A. WT and ΔXPA cells were either treated with DMSO or 0.5 mM acetohexamide for 6 hours. Cell cycle profiles were determined using propidium iodide (P1) staining followed by FACS analysis. B-D. Survival of WT HAP1 cells treated with either DMSO or 0.5 mM acetohexamide for 6 hours, followed by exposure to the indicated DNA damaging agents (MMC: mitomycin C; HU: hydroxyl urea; MMS: methyl methanesulfonate). Survival was assessed after 3 days using CellTitre-Glo. E. Cell viability of WT cells treated either with 0.5 mM acetohexamide or 30 μM N-acetylcysteine (NAC) for 6 hours, followed by 30 J/M^2 UV exposure.
Cells were treated with either DMSO or acetohexamide as indicated. Cell cycle stages were identified using propidium iodide (PI) staining. Briefly, cells were harvested, resuspended in PBS and fixed overnight with cold 70% ethanol. After centrifugation, ethanol was removed and cells were resuspended in PBS containing 1 μg/mL RNase A and […]. Finally, cells were analyzed on a FACScalibur flow cytometer. Following cell acquisition, analysis was performed using FlowJo software (Tree Star).

Assay [1] concerns XPA^Δ/Δ patient-derived cells. As to the kind of experiment: Colony formation of XPA patient-derived fibroblasts after UV irradiation. The conditions noted are these: 0.5 mM acetohexamide for 6 hours, then UV; 10 days (FIG. 2B). As for the experimental part:
A. Dose-response curve of WT and ΔXPA cells treated with or without 0.5 mM acetohexamide for 6 hours, followed by illudin S treatment. Survival was assessed after 3 days using CellTiter-Glo. B. Colony formation of WT fibroblasts (BJ) and XPA-patient derived fibroblasts (XPA^Δ/Δ) treated with or without 0.5 mM acetohexamide for 6 hours, followed by UV irradiation (as indicated) and then kept in culture for 10 days. C. WT BJ and XPA^Δ/Δ fibroblastoid cells were treated with 0.5 mM acetohexamide for 6 hours, irradiated with 15 J/M^2 and then fixed and immunostained with an anti-cyclobutane pyrimidine dimer (CPD) antibody at the indicated times. Nuclear DNA was counterstained with DAPI. Scale bar, 10 μm. D. Scatter plot displaying the quantification of CPD intensities per nucleus of WT and XPA^Δ/Δ cells in the presence or absence of 0.5 mM acetohexamide, of more than 100 cells. Red lines within each column represent median intensities. A.u.=arbitrary unit.
HAP1 cells were cultured in Iscove's Modified Dulbecco's Medium (Gibco). […]
Cells were treated with UV at different doses with or without drug pre-treatment and then seeded into 6-well plates, at a density of 1,000 cells/well, in duplicates for 2 weeks until visible colonies were formed. […] Next, the staining solution was removed and the wells were washed, imaged and quantified using CellProfiler.

For the molecule `CC(=O)c1ccc(S(=O)(=O)NC(=O)NC2CCCCC2)cc1` [acetohexamide], in the assay with SUR1 transcript, the SUR1 expression result is “not expressed”. Besides, the cell cycle profiles entry in the assay on WT and ΔXPA cells is recorded as “no difference between wildtype or ΔXPA cells upon acetohexamide treatment”. The “UV-induced cell death of XPA^Δ/Δ patient-derived cells” value in assay [1] is “could alleviate UV-induced cell death of XPA^Δ/Δ patient-derived cells”.
